Measured values taken from US20230285570A1, “THERAPEUTICALLY USEFUL CURE-PRO MOLECULES FOR E3 LIGASE MEDIATED DEGRADATION OF PROTEINS, AND METHODS OF MAKING AND USING THEM” (CORNELL UNIVERSITY, priority 2020, published 2023).
Entries after “also recorded” stand apart in the source; their conditions may differ.

Columns and labels:
Assay type in all cases: cell-based
BRD4 [1] = biological target: T1, BRD4 (Homo sapiens, UniProt O60885); test: CURE-PRO-mediated BRD4 degradation in MCF7 cells, WES (ProteinSimple); design: endogenous in cells
Procedure: (§1) WES Simple analysis was performed on WES system (ProteinSimple-Biotechne) according to the manufacturer's instructions. Total protein concentrations of cell lysates were determined by the Pierce BCA kit (Thermo Fisher). 3 μL of 0.3 μg/μL of the protein lysate was loaded onto a 12- to 230-kDa WES assay plate (ProteinSimple) where 300 nL sample was withdrawn through a capillary, subjected to electrophoretic separation of proteins by size, and followed by the simultaneous, HRP-based detection of proteins using the Anti-Rabbit Detection Module (Proteinsimple: #DM-001). The electropherograms were checked then the automatic peak detection was manually corrected if it was required.
MCF7 cells (3×10^6) were treated for 4-24 hours continually (FIG. 72), or treated for 4 h, washed and incubated for a further 4-24 h with the compounds solubilized in DMSO. Compounds were added at 10 μM each. Cells were washed, lysed, and clarified by centrifugation. The total protein concentration was quantified by the BCA method (ThermoFisher Sciences). Standardized protein samples were electrophoresed and imaged as described in the WES Proteinsimple section above. FIG. 69 depicts the CURE-PRO-mediated BRD4 degradation for the BRD-E50 monomer, and VHL ligand, 8305.
MCF7 cells (3×10^6) were treated for 24 hours with the compounds solubilized in DMSO. CURE-PRO monomers were added at 10 μM each and the proteasomal inhibitors at 1 μM. Standardized protein samples were electrophoresed and imaged as described in the WES Proteinsimple section above. FIGS. 73 and 75 depicts the dependence of the proteasome for CURE-PRO-mediated BRD4 degradation.
MCF7 cells (3×10^6) were treated for 24 hours with the compounds solubilized in DMSO. CURE-PRO monomers were added at 10 μM. FIG. 74 depicts the CURE-PRO-mediated BRD4 degradation for the BRD-E50 monomer, and VHL ligand, 8305 combined in a 1:1 ratio after 24 h.

BRD4 [2] = biological target: T1, BRD4; test: Summary of BRD4 degradation by CURE-PRO pairs, estimated from Western Blot or WES; design: endogenous in cells
Summary of the method: (§2)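 Degradation read-out from immunoblot with ECL, or WES capillary electrophoresis with HRP detection, of RIPA lysates. Cells (Namalwa, Ramos, HeLa, MCF7, HT29 or HCT116) were exposed to DMSO-solubilized compounds for 24 h; a check mark marks 30% to 70% or higher degradation.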

BRD4 [3] = biological target: T1, BRD4; test: CURE-PRO-mediated BRD4 degradation in HeLa cells, WES capillary electrophoresis (ProteinSimple); design: endogenous in cells; host or cells: HeLa; details: co-dosed with CRBN ligand 8047, HeLa, 24 h, 100 nM-10 μM each
Procedure: All cell lines were purchased from ATCC or DSMZ and grown at 37° C. with 5% CO2. Human HeLa cells were cultured in complete growth medium (Dulbecco's modified Eagle's medium (DMEM) supplemented with 10% FBS); MCF7 cells were cultured in complete growth medium (Dulbecco's modified Eagle's medium (DMEM) supplemented with 10% FBS and 0.01 mg/ml human recombinant insulin (Sigma Aldrich); Namalwa and Ramos cells were cultured in complete growth medium (RPMI 1640 medium supplemented with 10% FBS); HCT116 and HT29 cells were cultured in complete growth medium (McCoy's 5a Medium supplemented with 10% FBS). For cellular degradation of BRD4 studies cells were seeded in a 12-well plate at 70-80% confluency, allowed to attach overnight, and incubated with the indicated compounds for the indicated time. When indicated, a 15-minute pretreatment with 10 μM pomalidomide, 10 μM VHL298, 10 μM Nutlin3a, 1 μM MG-132 or 1 μM Carfilzomib was performed before the addition of CURE-PROs. For washout studies, after CURE-PRO treatment, media was aspirated and incubated with complete medium for the indicated time before lysis.
as §1
HeLa cells (2.5×10^6) were treated for 4-24 hours with the compounds solubilized in DMSO. After 4 hours, indicated points were washed and cells were left in full growth media. Compounds were added at 10 μM each. Standardized protein samples were electrophoresed and imaged as described in the WES ProteinSimple section above. FIGS. 44 and 45 depict the time-dependence of CURE-PRO-mediated BRD4 degradation with the BRD-E52 ligand (FIG. 44) and BRD-E72 ligand (FIG. 45), both JQ1 derivatives comprising of boronic acid linkers, and the CRBN binding ligands (8046, 8047, and 8066), pomalidomide derivatives comprising diol linkers.
HeLa cells (2.5×10^6) were treated for 24 hours with the compounds solubilized in DMSO. Compounds were added at 100 nM-10 μM each. Standardized protein samples were electrophoresed and imaged as described in the WES ProteinSimple section above. FIG. 46 depicts the concentration-dependence of CURE-PRO-mediated BRD4 degradation and the requirement for monomer dimerization.

MV-4-11 cells = test: CellTiter-Glo cell viability, MV-4-11 cells; details: co-dosed 1:1 with CRBN ligand 8049, MV-4-11, 24 h, 1 nM-100 μM each
Procedure: CellTiter-Glo® 2.0 Cell Viability Assay (Promega) was carried out following the manufacturer's recommendations. Cells were seeded at a density of 1000 cells/well in a white 96 well plates (Corning, #3917) in a total volume of 100 μl with respective monomers, combinations of BRD ligands together with E3 ligase ligands or vehicle control treatment. After a 72 h incubation, 100 ul of the CellTiter-Glo® substrate was added per well and luminescence was read on a Spectramax M5 (Molecular Devices). Dose-response curves were generated using Graphpad Prism software.
MV-4-11 cells (5×10^4) were treated for 24 hours with the sample compounds solubilized in DMSO. The compounds were added at 1 nM-100 μM each. Cellular viability was determined using the CellTiter-Glo® Luminescent Cell Viability Assay (Promega) described above. FIGS. 19-22 depict the CURE-PRO-mediated loss of cellular viability for BRD monomers (JQ1 derivatives comprising of catechol linkers), and CRBN ligand, 8049 (pomalidomide derivatives comprising boronic acid linkers) combined in a 1:1 ratio.
MV-4-11 cells (1×10^4) were treated for 72 hours with the compounds solubilized in DMSO. Compounds were added at 10 nM-100 μM each. Cellular viability was determined using the CellTiter-Glo® Luminescent Cell Viability Assay (Promega) described above. FIGS. 47-54 depict the CURE-PRO-mediated loss of cellular viability for BRD monomers (JQ1 derivatives comprising of boronic acid linkers), and CRBN ligands, 8046, 8047 and 8066 (pomalidomide derivatives comprising diol linkers) combined in a 1:1 ratio.

BRD4 [4] = biological target: T1, BRD4; test: CURE-PRO-mediated BRD4 degradation in HeLa cells, Western blot; design: endogenous in cells; host or cells: HeLa; details: 24 h
Summary of the method: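 HeLa cells (2.5×10^6) treated 24 h with DMSO-solubilized compounds, degrader pairs combined 1:1, at 1 nM-1 μM, 1-10 μM, 10 μM or 10 and 100 μM each depending on series. RIPA lysates (10-20 μg protein) run on SDS-PAGE and immunoblotted for BRD4 with ECL detection.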

c-MYC [5] = biological target: T2, c-MYC (Homo sapiens, UniProt P01106); test: CURE-PRO-mediated c-MYC degradation in MCF7 cells, WES (ProteinSimple); design: endogenous in cells
T2 sequence (P01106 whole entry): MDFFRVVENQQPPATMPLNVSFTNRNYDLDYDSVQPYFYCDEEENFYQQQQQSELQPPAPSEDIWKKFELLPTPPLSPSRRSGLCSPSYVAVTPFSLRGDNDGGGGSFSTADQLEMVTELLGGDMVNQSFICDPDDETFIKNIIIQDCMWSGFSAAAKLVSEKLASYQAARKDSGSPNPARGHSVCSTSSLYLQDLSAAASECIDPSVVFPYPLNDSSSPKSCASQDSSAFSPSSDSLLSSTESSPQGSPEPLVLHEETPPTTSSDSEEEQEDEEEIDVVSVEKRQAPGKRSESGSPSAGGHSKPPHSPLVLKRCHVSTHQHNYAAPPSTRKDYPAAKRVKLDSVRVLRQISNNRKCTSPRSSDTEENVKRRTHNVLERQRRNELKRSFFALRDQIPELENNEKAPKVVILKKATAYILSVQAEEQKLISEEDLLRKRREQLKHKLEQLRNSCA
Procedure: as §1
Compounds were added at 1 μM-10 μM each. Standardized protein samples were electrophoresed and imaged as detected on a WES capillary electrophoresis instrument (Proteinsimple), as described above. c-MYC monomers, MYC-N5 (FIG. 94) and MYC-N2 (FIG. 95) (10058-F4 derivatives comprising diol linkers), and VHL ligands, 8297 and 8298 (VH-298 derivatives comprising boronic acid linkers) were combined in a 1:1 ratio.

c-MYC [6] = biological target: T2, c-MYC; test: Summary of C-MYC degradation by CURE-PRO pairs, estimated from Western Blot or WES; design: endogenous in cells; host or cells: HT29
Summary of the method: as §2

[7] = 1:1 with VHL ligand 8297, MCF7, 24 h, 1 μM-10 μM each
[8] = 1:1 with VHL ligand 8298, MCF7, 24 h, 1 μM-10 μM each
[9] = c-MYC monomer alone, MCF7, 24 h, 1 μM-10 μM

COc1ccc2c(c1)C(c1ccc(Cl)cc1)=N[C@@H](CC(=O)NCCNC(=O)c1cccc(B(O)O)c1)c1nnc(C)n1-2 [BRD-E2]
BRD4 degradation with proteasome inhibitors (BRD4 [1]; 1:1 with 8305 at 10 μM, pre-incubation with MG-132 and Carfilzomib 1 μM, MCF7): inhibited by the pre-incubation with MG-132 and Carfilzomib; also recorded: inhibited with the proteasome inhibitors, MG-132 and Carfilzomib
BRD4 degradation (BRD4 [1]; 1:1 with VHL ligand 8305, MCF7, 10 μM each, 4-24 h): caused BRD4 degradation; also recorded: marked BRD4 degradation
Degradation of BRD4, combination with VHL ligand 8305 (BRD4 [2]; Table 3, aryl-boronic acid BRD4 ligand + 8305): √ (A black check mark indicates efficacy of 30% to 70% or higher protein degradation)

CCNC(=O)C[C@@H]1N=C(c2ccc(Sc3ccccc3)cc2)c2cc(OC)ccc2-n2c(C)nnc21 [BRD-E52C, N-ethyl-2-((4S)-8-methoxy-1-methyl-6-(4-(phenylthio)phenyl)-4H-benzo[f][1,2,4]triazolo[4,3-a][1,4]diazepin-4-yl)acetamide]
concentration-dependent BRD4 degradation (BRD4 [3]): failed to induce degradation even at 10 μM

COc1ccc2c(c1)C(c1ccc(Cl)cc1)=N[C@@H](CC(=O)NCCc1ccc(O)c(O)c1)c1nnc(C)n1-2 [BRD-N10, (S)-2-(6-(4-chlorophenyl)-8-methoxy-1-methyl-4H-benzo[f][1,2,4]triazolo[4,3-a][1,4]diazepin-4-yl)-N-(3,4-dihydroxyphenethyl)acetamide]
loss of cellular viability (toxicity) (MV-4-11 cells): concentration-dependent loss in cellular viability; also recorded: increased toxicity
Degradation of BRD4, combination with CRBN ligand 8048 (BRD4 [2]; Table 4, aromatic 1,2-diol BRD4 ligand + 8048): √ (A black check mark indicates efficacy of 30% to 70% or higher protein degradation)
Degradation of BRD4, combination with CRBN ligand 8049 (BRD4 [2]; Table 4, aromatic 1,2-diol BRD4 ligand + 8049): √ (A black check mark indicates efficacy of 30% to 70% or higher protein degradation)
Degradation of BRD4, combination with MDM2 ligand 8310 (BRD4 [2]; Table 5, aromatic 1,2-diol BRD4 ligand + 8310): √ (A black check mark indicates efficacy of 30% to 70% or higher protein degradation)
BRD4 degradation (BRD4 [4]; BRD4 monomer alone, HeLa, 1-10 μM): there is no degradation of BRD4
BRD4 degradation (BRD4 [4]; co-treated 1:1 with CRBN ligand 8048, HeLa, 1-10 μM each): causes degradation of BRD4; also recorded: capable of degrading BRD4

CCc1ccc(/C=C2\SC(=O)N(Cc3cccc(O)c3O)C2=O)cc1 [MYC-N2]
c-MYC degradation (c-MYC [5]; [7]): Degradation is observed; also recorded: caused degradation of c-MYC
c-MYC degradation (c-MYC [5]; [8]): no loss of c-MYC protein was observed
c-MYC degradation (c-MYC [5]; [9]): no loss of c-MYC protein was observed
Degradation of C-MYC, combination with CRBN ligand 8048 (c-MYC [6]; Table 10, aromatic 1,2-diol MYC ligand + 8048): √ (A black check mark indicates efficacy of 30% to 70% or higher protein degradation)

CCc1ccc(/C=C2\SC(=O)N(CCCc3ccc(O)c(O)c3)C2=O)cc1 [MYC-N5]
c-MYC degradation (c-MYC [5]; [7]): no loss of c-MYC protein was observed
c-MYC degradation (c-MYC [5]; [8]): Degradation is observed; also recorded: caused degradation of c-MYC
c-MYC degradation (c-MYC [5]; [9]): no loss of c-MYC protein was observed
Degradation of C-MYC, combination with CRBN ligand 8049 (c-MYC [6]; Table 10, aromatic 1,2-diol MYC ligand + 8049): √ (A black check mark indicates efficacy of 30% to 70% or higher protein degradation)
